Reference: patent US5571518A, “Cosmetic compositions containing tricholine citrate” (priority 1995, dated 1996)
Read-outs that look alike come from different tables or passages of the source.

Experiments:
[1] = tested on: human keratinocytes; assay: Cornified envelope (CE) formation, marker of terminal differentiation of keratinocytes; type: cell-based; conditions: Homo sapiens, Keratinocyte, read-out: CE Levels
Experimental: (§1) Human keratinocytes, isolated from neonatal foreskin by trypsin treatment were grown in Dulbecco Modification Eagle (DME) Hams F12 (3:1) medium/5% fetal calf serum in the presence of mitomycin C treated 3T3 mouse fibroblasts for establishing dividing keratinocyte colonies. Cells were grown under the above condition until their second passage and kept frozen for future use. Frozen second passage keratinocytes were thawed and plated into the above medium and grown for five days. On day 5, when the cells were 70-80% confluent, they were trypsinized and plated in the serum-free medium for the various experiments.
(§2) During the process of terminal differentiation in the epidermis, a 15 nm thick layer of protein, known as the cornified envelope (CE)is formed on the inner surface of the cell periphery. The CE is composed of numerous distinct proteins which have been cross-linked together by the formation of N ^ε -(-γ-glutamyl) lysine isodipeptide bonds catalyzed by the action of at least two different transglutaminases expressed in the epidermis. Transglutaminase (TG-1) is expressed in abundance in the differentiated layers of the epidermis, especially the granular layer, but is absent in the undifferentiated basal epidermis. Thus, TG-1 is a useful marker of epidermal keratinocyte differentiation with high TG-1 levels indicating a more differentiated state. An ELISA based TG-1 assay, using a TG-1 antibody, was used to assess the state of differentiation of the cultured keratinocytes in the examples that follow.
Proper skin conditioning require enhanced proliferation and differentiation of epidermal keratinocytes. The different citrate esters were tested on their effect on cornified envelope (CE) formation, a marker of terminal differentiation of keratinocytes. Citrate esters were tested at 1 mM levels in medium containing 0.15 mM Ca. Levels are expressed as % of control ±SD. The CE formation for the control was 54.48 ±31.8 cpm/μg cell protein.

[2] = tested on: human keratinocytes; assay: DNA synthesis in keratinocytes (3H-thymidine incorporation, keratinocyte proliferation); type: cell-based; conditions: Homo sapiens, Keratinocyte; for activity at 0.1 µM / activity at 1 µM / activity at 10 µM / activity at 100 µM / activity at 1000 µM / activity at 10000 µM: read-out: Rate of DNA synthesis; for minimal effective concentration: read-out: concentration at which inhibitory to DNA synthesis
Excerpt: The incorporation of ^3 H-thymidine by cultured keratinocytes was used as an assay of keratinocyte proliferation. Thymidine is one of four deoxynucleosides which are the monomeric units of DNA, the universal library of genetic information in the animal kingdom. Prior to cell division of a somatic cell such as a keratinocyte, the complete genome of the cell undergoing cell division is replicated. This involves large scale DNA synthesis by the cell and enables both daughter cells to receive identical copies of the genetic material. When ^3 H-thymidine is included in the culture media of keratinocytes which are synthesizing DNA in preparation for cell division then the labelled nucleoside is incorporated into the newly synthesized DNA. The extent of incorporation of ^3 H-thymidine into a population of cells is proportional to the rate of DNA synthesis by this population of cells and therefore an indication of their cellular proliferation.
1. Normal human keratinocytes isolated from neonatal foreskins by trypsin treatment were grown in DME medium/5% fetal calf serum in the presence of mitomycin C treated 3T3 mouse fibroblasts for establishing dividing keratinocyte colonies. Keratinocytes were grown under the above condition until their third passage.
2. For the experiments, third passage keratinocytes were plated into a serum-free keratinocyte growth medium (KGM; obtained from Clonetics, San Diego, Calif.) containing 0.09 mM calcium. 20,000 to 30,000 cells were plated into each well of 24 well cell culture plates and grown for 5 days, until the cells reach about 80% confluence.
3. Medium was changed to fresh medium and the various test materials were added to the medium from an ethanolic stock solution. The final ethanol concentration in the cultures was kept below 0.2%. Control cultures received no tested material but were dosed with 0.2% ethanol. Each compound or combination was tested in three separate wells. In four hours, 1 uCi of ^3 H-thymidine (Amersham Corp., Sp activity 40 Ci/mmol) was added to the 1 ml medium in each well. The cells were incubated overnight and 24 hours later the amount of ^3 H-thymidine associated with the cellular DNA of keratinocytes was assessed as described below.
4. The medium was aspirated, and the wells washed with 1 ml phosphate-buffered saline. The DNA and proteins of the cells in the plate were then precipitated by adding 1 ml of ice-cold 10% trichloroacetic acid (TCA). The plates were left on ice for 30 minutes to complete the precipitation process. TCA was then aspirated and each well was then washed four times with 5% TCA. The plates were then dried on a filter pad and the cells in the wells were dissolved in 0.5 ml of 0.1N sodium hydroxide. The sodium hydroxide was then neutralized using 0.1N hydrochloric acid and the solution (1 ml total volume) was then transferred to a scintillation vial. 50 μl samples from each vial were used for protein assay using BCA protein assay reagent obtained from Pierce Chemical Company. 8 ml of a scintillation fluid (Ecolume) was added to the rest of the solution in the vial, and the vials were counted in a scintillation counter to determine the amount of radioactivity in each vial. The DNA synthesis rate was then calculated as cpm ^3 H thymidine incorporated into total cellular DNA/microgram of cell protein for each individual well.

[3] = tested on: Transglutaminase (TG-1); assay: Transglutaminase I levels in keratinocytes (ELISA based TG-1 assay); type: cell-based, human; conditions: 48 hour treatment
Experimental: as §1, §2
The level of TG-1 was measured as follows. […] The DNA content of the cells in the wells were first determined before the TG-1 assay.
TG-1 levels of the cells in the wells were determined using the TG-1 specific monoclonal antibody (BC1) (first antibody) (obtained from Amersham Life Sciences) and using a peroxidase labelled rabbit antimouse IgG fragment (second antibody). The plates were blocked by 5% nonfat milk in TBS (Tris buffered saline, pH 8.0) for one hour followed by overnight incubation with the first antibody (1:2,000 fold dilution) in 1% milk/TBS at 4° C. After rinsing the plates three times with 1% milk/TBS containing 0.05% Tween 20, the plates were incubated with 1:4000 dilution of the second antibody at room temperature for two hours. The plates were rinsed three times with 1% milk/TBS/Tween and three times with TBS. Color was developed by incubation with o-phenylene diamine and hydrogen peroxide. The optical density was read at 410 nm in a microtiter plate reader and the TG-1 levels were calculated as OD/DNA fluorescence. The mean ±Standard Deviation of at least six separate wells were used for calculation and statistical analysis of the data. Results are expressed as % of control.
Cornified envelope formation is determined by the activity of transglutaminase enzyme which cross-links all the envelope precursor proteins to form the envelope. This enzyme is calcium dependent and is inhibited by calcium chelators such as citric acid and citric acid esters.

[4] = 10 μM, * statistically significant
[5] = 100 μM, * statistically significant
[6] = 1 mM, medium containing 0.15 mM Ca, ±SD, * statistically significant effects
[7] = 100 μM, 24 hours exposure, ±SD, * statistically significant compared to controls
[8] = 1000 μM, 24 hours exposure, ±SD, * statistically significant compared to controls
[9] = 10,000 μM, 24 hours exposure, ±SD, * statistically significant compared to controls

C[N+](C)(C)CCO [Choline, choline]
activity at 1000 µM [1]: 135 ± 23.6% | activity at 0.1 µM ([2]; 24 h): 125 ± 17.6% | activity at 1 µM ([2]; 24 h): 113 ± 12% | activity at 10 µM ([2]; 24 h): 109 ± 3.3% | activity at 100 µM ([2]; 24 h): 114 ± 12% | activity at 1000 µM ([2]; 24 h): 115 ± 24% | activity at 10000 µM ([2]; 24 h): 127 ± 10.7% | transglutaminase I levels ([3]; 1 μM): 121.8 ± 18 % of control | transglutaminase I levels [3, 4]: 124.2 ± 8.7 % of control | transglutaminase I levels [3, 5]: 120.4 ± 11.3 % of control

CCCCOC(=O)CC(O)(CC(=O)OCCCC)C(=O)OCCCC [TBC, tributylcitrate]
activity at 1000 µM [1, 6]: 23.6 ± 2.1% | activity at 0.1 µM ([2]; 0.1 μM, 24 hours exposure, ±SD): 106 ± 8.4% | activity at 1 µM ([2]; 1.0 μM, 24 hours exposure, ±SD): 100 ± 28% | activity at 10 µM ([2]; 10 μM, 24 hours exposure, ±SD): 68.2 ± 13% | activity at 100 µM [2, 7]: 8.7 ± 5.5% | activity at 1000 µM [2, 8]: 1.35 ± 0.1% | activity at 10000 µM [2, 9]: 0.505% | minimal effective concentration ([2]; 24 hours exposure): > 10 µM | transglutaminase I levels ([3]; 1 μM): 100 ± 13 % of control | transglutaminase I levels [3, 4]: 79 ± 13 % of control | transglutaminase I levels [3, 5]: 79 ± 13 % of control

CCOC(=O)CC(O)(CC(=O)OCC)C(=O)OCC [TEC, triethylcitrate]
activity at 1000 µM [1, 6]: 18.6 ± 4.2% | activity at 0.1 µM ([2]; 0.1 μM, 24 hours exposure, ±SD): 112 ± 21.5% | activity at 1 µM ([2]; 1.0 μM, 24 hours exposure, ±SD): 112 ± 13.1% | activity at 10 µM ([2]; 10 μM, 24 hours exposure, ±SD): 79.1 ± 13.9% | activity at 100 µM [2, 7]: 9.8 ± 2.3% | activity at 1000 µM [2, 8]: 11.2 ± 9.2% | activity at 10000 µM [2, 9]: 1.2 ± 0.02% | minimal effective concentration ([2]; 24 hours exposure): > 10 µM | transglutaminase I levels ([3]; 1 μM): 77.3 ± 10.7 % of control | transglutaminase I levels [3, 4]: 76.7 ± 20.8 % of control | transglutaminase I levels [3, 5]: 67.2 ± 11.9 % of control
